Laboratory results taken from PubChem BioAssay AID1264 (University of Pittsburgh Molecular Library Screening Center, 2008).
Several values for one entry are separate records, joined by “and”; a condition that tells them apart may be missing. Identical values can stand only once. Activity calls are given as the source filed them.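 How the source made its calls: active means every replicate of triplicate confirmation testing shows 50% or greater inhibition; inconclusive means one or more replicate tests show below 50% inhibition; inactive means every triplicate test shows below 50% inhibition.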

Biological target: Serine/threonine-protein kinase PLK1 (Homo sapiens) (UniProt P53350)
Sequence (P53350 whole entry, looked up): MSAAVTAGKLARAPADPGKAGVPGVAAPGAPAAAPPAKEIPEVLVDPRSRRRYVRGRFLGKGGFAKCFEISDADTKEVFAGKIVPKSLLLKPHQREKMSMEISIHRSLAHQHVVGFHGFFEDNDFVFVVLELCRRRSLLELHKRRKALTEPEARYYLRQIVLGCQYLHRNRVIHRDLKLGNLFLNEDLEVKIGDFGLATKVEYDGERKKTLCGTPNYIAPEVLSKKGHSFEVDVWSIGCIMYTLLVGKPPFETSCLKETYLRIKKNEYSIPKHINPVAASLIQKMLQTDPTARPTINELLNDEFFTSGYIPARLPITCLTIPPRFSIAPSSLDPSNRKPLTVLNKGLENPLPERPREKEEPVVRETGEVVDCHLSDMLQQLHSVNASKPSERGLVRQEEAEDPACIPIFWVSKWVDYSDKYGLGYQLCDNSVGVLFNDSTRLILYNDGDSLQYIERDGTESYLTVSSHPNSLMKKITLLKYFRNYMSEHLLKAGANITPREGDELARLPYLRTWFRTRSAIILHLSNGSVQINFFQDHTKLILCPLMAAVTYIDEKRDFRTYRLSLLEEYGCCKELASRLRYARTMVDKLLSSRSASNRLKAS
Experiment: PLK1 kinase activity inhibitors, confirmation, biochemical, analogue series, repeat of primary screen (AID 1264)
Details: recombinant PLK1 kinase, TR-FRET phosphopeptide binding; at 10 µM; active compounds read high

| SMILES | inhibition |
| --- | --- |
| O=C(Nc1ccccc1)c1ccc(F)cc1F | 24.9% (inactive) |
| CCOC(=O)c1ccccc1NC(=O)c1c(O)[nH]c(=S)[nH]c1=O | 19.1% (inactive) |
| CCOC(=O)c1ccc(NC(=O)c2c(N)n(C)c(=O)[nH]c2=O)cc1 | -19.2% (inactive) |
| CCCCOC(=O)c1ccc(NC(=O)c2c(N)n(C)c(=O)[nH]c2=O)cc1 | -5.01% (inactive) |
| CC(C)C(=O)NCCc1nc(-c2ccccc2Cl)no1 | -5.05% (inactive) |
| CCOC(=O)c1cccc(NC(=O)c2c(O)[nH]c(=O)[nH]c2=O)c1 | -17.6% (inactive) |
| CCC(=O)NCCc1nc(-c2ccccc2)no1 | -12.8% (inactive) |
| CCOC(=O)c1ccc(NC(=O)c2c(NCc3ccccc3)[nH]c(=O)[nH]c2=O)cc1 | -44% (inactive) |
| CCOC(=O)c1ccccc1NC(=O)c1ccc(F)cc1F | -4.35% (inactive) |
| CCOC(=O)c1ccc(NC(=O)c2c(N)n(Cc3ccccc3)c(=O)[nH]c2=O)cc1 | -23.9% (inactive) |
| O=C(NCCc1nc(-c2ccccc2Cl)no1)C1CCCCC1 | -35.6% (inactive) |
| Cc1cc(C)c(C2=CC(c3ccccc3)n3ncnc3N2)cc1C (stereo unspecified) | -3.17% (inactive) |
| Cn1c(N)c(S(=O)(=O)NCc2ccccc2)c(=O)n(C)c1=O | -15.5% (inactive) |
| FC(F)(F)c1ccccc1C1=CC(c2ccccc2)n2ncnc2N1 (stereo unspecified) | -2.08% (inactive) |
| CCOC(=O)c1ccccc1NC(=O)c1c(N)n(C)c(=O)[nH]c1=O | -3.12% (inactive) |
| CC(C)C(=O)NCCc1nc(-c2ccc(Cl)cc2)no1 | -14.7% (inactive) |
| CCOC(=O)c1cccc(NC(=O)c2ccc(F)cc2F)c1 | -1.61% (inactive) |
| CCC1=CC(c2ccccc2)n2ncnc2N1 (stereo unspecified) | 27.4% (inactive) |
| Cc1ccc(C2=CC(c3ccc(C)cc3)n3ncnc3N2)cc1 (stereo unspecified) | -1.39% (inactive) |
| O=C(NCCc1nc(-c2ccccc2)no1)c1ccco1 | -16.1% (inactive) |
| Cn1cccc1C1C=C(c2ccc(C(C)(C)C)cc2)Nc2ncnn21 (stereo unspecified) | -5.07% (inactive) |

| SMILES | inhibition |
| --- | --- |
| CCCCOC(=O)c1ccc(NC(=O)c2c(O)[nH]c(=O)[nH]c2=O)cc1 | 13.1% (inactive) |
| CCOc1ccc(NC(=O)c2c(O)[nH]c(=O)[nH]c2=O)cc1 | 4.03% (inactive) |
| CCOC(=O)c1ccc(NC(=O)c2c(N)n(C)c(=O)n(C)c2=O)cc1 | -20.8% (inactive) |
| CCOC(=O)c1ccc(NS(=O)(=O)c2c(N)n(C)c(=O)n(C)c2=O)cc1 | -7.36% (inactive) |
| CCC(=O)NCCCc1nc(-c2ccccc2)no1 | -3.38% (inactive) |
| CCOc1ccc(NC(=O)c2ccc(F)cc2F)cc1 | -2.77% (inactive) |
| CCOC(=O)c1ccccc1NC(=O)c1c(O)[nH]c(=O)[nH]c1=O | -7.12% (inactive) |
| CCOC(=O)c1ccc(NC(=O)c2ccc(F)cc2F)cc1 | 4.42% (inactive) |
| C1=C(c2ccccc2)Nc2ncnn2C1c1ccccc1 (stereo unspecified) | -5.72% (inactive) and -12.8% (inactive) |
| Cc1ccc(C2=CC(c3ccccc3)n3ncnc3N2)cc1 (stereo unspecified) | -16.9% (inactive) |
| CC(C)(C)c1ccc(C2=CC(c3ccccc3)n3ncnc3N2)cc1 (stereo unspecified) | -7.88% (inactive) |
| COc1ccc(C2C=C(C)Nc3ncnn32)cc1 (stereo unspecified) | 5.53% (inactive) |
| CCCCOC(=O)c1ccc(NC(=O)c2ccc(F)cc2F)cc1 | -1.8% (inactive) |
| CCOC(=O)c1cccc(NC(=O)c2c(NCc3ccccc3)[nH]c(=O)[nH]c2=O)c1 | -25.1% (inactive) |
| O=C(NCCc1nc(-c2ccccc2)no1)c1ccccc1 | -5.02% (inactive) |
| Cc1ccc(NC(=O)c2ccc(F)cc2F)cc1 | 0.531% (inactive) |
| O=C(Nc1ccccc1)c1c(O)[nH]c(=S)[nH]c1=O | 14.3% (inactive) |
| CCOC(=O)c1ccc(NC(=O)c2c(O)[nH]c(=O)[nH]c2=O)cc1 | -4.9% (inactive) |
| COc1ccc(C2C=C(c3ccccc3)Nc3ncnn32)cc1 (stereo unspecified) | -8.01% (inactive) |
| CCOC(=O)CCCCCNC(=O)c1c(O)[nH]c(=O)[nH]c1=O | -9.36% (inactive) |
| CCCC(=O)NC(C)c1nc(-c2ccc(C)cc2)no1 (stereo unspecified) | -6.32% (inactive) |

| SMILES | inhibition |
| --- | --- |
| CC(C)C(=O)NCCc1nc(-c2ccccc2)no1 | -10.1% (inactive) |
| CC(=O)NCCc1nc(-c2ccc(Cl)cc2)no1 | 0.952% (inactive) |
| CC1=CC(c2ccccc2)n2nc(N)nc2N1 (stereo unspecified) | -13.7% (inactive) |
| CC1=CC(c2ccccc2)n2ncnc2N1 (stereo unspecified) | 26% (inactive) |
| CCOC(=O)CCCCCNC(=O)c1ccc(F)cc1F | -1.76% (inactive) |
| CCOc1ccc(NC(=O)c2c(N)n(C)c(=O)[nH]c2=O)cc1 | -9.99% (inactive) |
| CC(C)(C)c1ccc(C2=CC(c3ccccc3F)n3ncnc3N2)cc1 (stereo unspecified) | -3.46% (inactive) |
| C/C(=N\NC(=O)c1ccncc1)c1c(O)[nH]c(=O)[nH]c1=O | -1.95% (inactive) |
| O=C(Nc1ccccc1)c1c(O)[nH]c(=O)[nH]c1=O | 0.179% (inactive) |
| CC(C)(C)C(=O)NCCc1nc(-c2ccccc2)no1 | 0.116% (inactive) |
| CCOc1ccc(C2=CC(c3ccccc3)n3ncnc3N2)cc1 (stereo unspecified) | -6.38% (inactive) |
| Cc1ccc(C2=CC(c3ccccc3)n3ncnc3N2)c(C)c1 (stereo unspecified) | -6.91% (inactive) |
| C1=C(c2ccccc2)Nc2ncnn2C1 | 12.8% (inactive) |
| O=C(NCCc1nc(-c2ccccc2Cl)no1)c1ccccc1 | -12.8% (inactive) |
| Cn1c(N)c(C(=O)Nc2ccccc2)c(=O)[nH]c1=O | 8.78% (inactive) |
| Cc1ccc(C2C=C(c3ccccc3)Nc3ncnn32)cc1 (stereo unspecified) | -8.59% (inactive) |
| CCOC(=O)c1cccc(NC(=O)c2c(N)n(C)c(=O)[nH]c2=O)c1 | -1.45% (inactive) |
| Cc1cc(=O)n2[nH]cnc2n1 | 19.1% (inactive) |
| Cc1cccc(N/N=C/c2c(O)[nH]c(=S)[nH]c2=O)c1 | -7.37% (inactive) |
